From the NIST ThermoML archive (doi:10.1016/j.jct.2017.05.022)
Numbers after ± are expanded uncertainties.

Experiments:
[1] = Molar enthalpy of transition or fusion; settings: Crystal; DSC
[2] = Solid-liquid equilibrium temperature; settings: Crystal, DTA
[3] = for specific volume / mass density: 101.33 kPa; for specific volume: X-ray diffraction; for mass density: Liquid, Vibrating tube method

Compound: O=C(OCCN1CCOCC1)c1cccnc1Nc1cccc(C(F)(F)F)c1
- Molar enthalpy of transition or fusion [1]: 8.45 ± 0.359 kcal/mol
- Solid-liquid equilibrium temperature ([2]; 100 kPa): 348.1 ± 0.8 K
- Solid-liquid equilibrium temperature ([2]; 32000 kPa): 358.5 ± 3.1 K
- Solid-liquid equilibrium temperature ([2]; 58000 kPa): 366.9 ± 3.1 K
- Solid-liquid equilibrium temperature ([2]; 79000 kPa): 374.5 ± 3.1 K
- Solid-liquid equilibrium temperature ([2]; 115000 kPa): 382.7 ± 3.1 K
- Solid-liquid equilibrium temperature ([2]; 140000 kPa): 390.7 ± 3.1 K
- Solid-liquid equilibrium temperature ([2]; 155000 kPa): 396 ± 3.1 K
- Solid-liquid equilibrium temperature ([2]; 201000 kPa): 403.7 ± 3.1 K
- Solid-liquid equilibrium temperature ([2]; 244000 kPa): 421.5 ± 3.1 K
- specific volume ([3]; 100 K, Crystal): 0.0006857 ± 1e-06 m3/kg
- specific volume ([3]; 125 K, Crystal): 0.0006872 ± 1e-06 m3/kg
- specific volume ([3]; 150 K, Crystal): 0.0006912 ± 1.1e-06 m3/kg
- specific volume ([3]; 175 K, Crystal): 0.000693 ± 1.1e-06 m3/kg
- specific volume ([3]; 200 K, Crystal): 0.0006968 ± 1.1e-06 m3/kg
- specific volume ([3]; 225 K, Crystal): 0.0006995 ± 1.1e-06 m3/kg
- specific volume ([3]; 250 K, Crystal): 0.0007035 ± 1.1e-06 m3/kg
- specific volume ([3]; 273 K, Crystal): 0.0007063 ± 1.1e-06 m3/kg
- specific volume ([3]; 298.2 K, Crystal): 0.0007115 ± 1.1e-06 m3/kg
- specific volume ([3]; 315 K, Crystal): 0.0007135 ± 1.1e-06 m3/kg
- specific volume ([3]; 320 K, Crystal): 0.0007145 ± 1.1e-06 m3/kg
- mass density ([3]; 323.15 K): 1262.9 ± 0.5 kg/m3
- specific volume ([3]; 325 K, Crystal): 0.0007147 ± 1.1e-06 m3/kg
- mass density ([3]; 325.65 K): 1260.6 ± 0.5 kg/m3
- mass density ([3]; 328.15 K): 1258.4 ± 0.5 kg/m3
- specific volume ([3]; 330 K, Crystal): 0.0007156 ± 1.1e-06 m3/kg
- mass density ([3]; 330.65 K): 1256.2 ± 0.5 kg/m3
- specific volume ([3]; 332 K, Crystal): 0.0007166 ± 1.1e-06 m3/kg
- mass density ([3]; 333.15 K): 1254 ± 0.5 kg/m3
- specific volume ([3]; 335 K, Crystal): 0.0007171 ± 1.1e-06 m3/kg
- mass density ([3]; 335.15 K): 1252.2 ± 0.5 kg/m3
- specific volume ([3]; 337 K, Crystal): 0.0007171 ± 1.1e-06 m3/kg
- mass density ([3]; 337.65 K): 1249.9 ± 0.5 kg/m3
- specific volume ([3]; 340 K, Crystal): 0.0007177 ± 1.1e-06 m3/kg
- mass density ([3]; 340.15 K): 1247.7 ± 0.5 kg/m3
- specific volume ([3]; 342 K, Crystal): 0.0007184 ± 1.1e-06 m3/kg
- mass density ([3]; 342.65 K): 1245.4 ± 0.5 kg/m3
- mass density ([3]; 345.15 K): 1243.2 ± 0.4 kg/m3
- specific volume ([3]; 347 K, Crystal): 0.0007192 ± 1.1e-06 m3/kg
- mass density ([3]; 347.65 K): 1240.9 ± 0.4 kg/m3
- mass density ([3]; 350.15 K): 1238.7 ± 0.4 kg/m3
- mass density ([3]; 352.65 K): 1236.4 ± 0.4 kg/m3
- mass density ([3]; 355.16 K): 1234.2 ± 0.4 kg/m3
- mass density ([3]; 357.65 K): 1231.9 ± 0.4 kg/m3
- mass density ([3]; 360.15 K): 1229.7 ± 0.4 kg/m3
- mass density ([3]; 362.65 K): 1227.4 ± 0.4 kg/m3
- Normal melting temperature ([3]; Crystal, DTA): 75.0 ± 0.9 °C
- Glass transition temperature ([3]; Glass, DSC): -23.7 ± 1.2 °C
